# Experimental data as given in US9505781B2, “Compositions comprising thienopyrimidine and thienopyridine compounds and methods of use thereof” (The Regents of the University of Michigan, priority 2013, dated 2016).
# Key:
# menin-MLL interaction = target: T1, menin-MLL interaction (Homo sapiens, UniProt O00255); assay: biochemical
# T1 sequence (O00255 1-610): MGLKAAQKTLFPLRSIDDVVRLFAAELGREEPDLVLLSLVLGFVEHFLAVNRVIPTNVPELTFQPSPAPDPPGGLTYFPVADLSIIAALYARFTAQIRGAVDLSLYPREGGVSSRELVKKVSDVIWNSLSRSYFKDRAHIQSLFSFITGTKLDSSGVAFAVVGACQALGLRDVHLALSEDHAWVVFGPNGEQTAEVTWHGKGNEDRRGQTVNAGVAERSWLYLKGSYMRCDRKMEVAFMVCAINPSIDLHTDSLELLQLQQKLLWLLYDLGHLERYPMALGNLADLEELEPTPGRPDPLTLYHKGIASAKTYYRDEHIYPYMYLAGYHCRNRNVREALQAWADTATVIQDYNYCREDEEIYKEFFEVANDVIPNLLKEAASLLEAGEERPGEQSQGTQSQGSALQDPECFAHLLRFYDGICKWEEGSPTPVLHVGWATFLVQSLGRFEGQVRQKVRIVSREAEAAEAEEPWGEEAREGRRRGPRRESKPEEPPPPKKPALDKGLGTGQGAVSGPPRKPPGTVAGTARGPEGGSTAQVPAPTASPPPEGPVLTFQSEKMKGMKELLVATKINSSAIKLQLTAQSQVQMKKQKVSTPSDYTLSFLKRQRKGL
# Source text: Compounds that inhibit the interaction decrease the fluorescence anisotropy which is being used as a read-out for compound screening and for IC50 determination.
# [1] = target: T2, menin-MLL-AF9 interaction (Homo sapiens, UniProt O00255); assay: Co-Immunoprecipitation (co-IP) in HEK293 cells transfected with MLL-AF9; assay type: cell-based; settings: HEK293 cells transfected with MLL-AF9, FIG. 2
# T2 construct: performed in HEK293 cells transfected with MLL-AF9; endogenous in cells; host or cells: HEK293 cells (transfected with MLL-AF9)
# T2 sequence (O00255 1-610): T1 sequence (O00255 1-610)
# [2] = test system: MLL-AF9 transformed mouse bone marrow cells (BMC); assay: MTT cell viability assay in transformed BMC; assay type: cell-based; settings: 72 h incubation, E2H-HLF transformed BMC as negative control, FIG. 3
# Hoxa9 and Meis 1 = assay: qRT-PCR of MLL fusion downstream targets; assay type: cell-based; settings: qRT-PCR in MLL-AF9 BMC, FIG. 10
# Source text: FIG. 10. […] B. qRT-PCR performed in MLL-AF9 BMC for Compound 175.
# MLL-AF9 leukemia = assay: In vivo efficacy in mice model of MLL-AF9 leukemia; settings: once daily i.p. injections of 75 mg/kg dose, FIG. 18
# Source text: FIG. 18. In vivo efficacy studies with compound 108 in mice model of MLL-AF9 leukemia.
# [3] = test system: human MLL leukemia cell lines; assay: MTT cell viability assay in human leukemia cell lines; assay type: cell-based; settings: 3 days of incubation, FIG. 11
# MLL-AF9 BMC [4] = assay: Colony formation assay; assay type: cell-based; settings: each round 7 days, FIG. 7
# Source text: FIG. 7. […] Each round takes 7 days.
# MLL-AF9 transformed BMC = assay: Growth curves experiments in transformed BMC; assay type: cell-based; settings: MLL-AF9 BMC vs Hoxa9/Meis1 transformed BMC (negative control), FIG. 5
# MLL-AF9 BMC [5] = assay: Differentiation (CD11b expression, cell morphology); assay type: cell-based; settings: CD11b expression level and cell morphology, FIG. 9
# [6] = test system: non-MLL leukemia cell lines; assay: Growth inhibition of non-MLL leukemia cell lines; assay type: cell-based; settings: FIG. 13 B
# [7] = test system: human MLL leukemia cell lines; assay: Growth inhibition of human MLL leukemia cell lines; assay type: cell-based; settings: FIG. 13 A
compound,measurement,setting,value
FC(F)(F)Cc1cc2c(NC3CCN(Cc4ccccc4)CC3)ncnc2s1 [Compound 108],IC50,menin-MLL interaction,100 to 500 nM
same,inhibition of the menin-MLL-AF9 interaction,[1],inhibition of the menin-MLL-AF9 interaction
same,inhibition of proliferation,[2],selectively inhibit proliferation of MLL leukemia cells
same,expression of Hoxa9 and Meis 1,Hoxa9 and Meis 1,downregulate expression of downstream targets of MLL fusion proteins
same,survival of leukemic mice,MLL-AF9 leukemia,Increase in survival of leukemic mice
same,growth inhibition,[3],selectively inhibit growth of human MLL leukemia cell lines
same,morphology of colonies,MLL-AF9 BMC [4],changes morphology of colonies
"N#Cc1cc2cc(CN3CCC(Nc4ncnc5sc(CC(F)(F)F)cc45)CC3)ccc2[nH]1 [Compound 175, 5-((4-((6-(2,2,2-trifluoroethyl)thieno[2,3-d]pyrimidin-4-yl)amino)piperidin-1-yl)methyl)-1H-indole-2-carbonitrile]",selectivity in growth curves,MLL-AF9 transformed BMC,great selectivity of the compound towards MLL fusion protein transformed cells
same,IC50,menin-MLL interaction,< 100 nM
same,inhibition of the menin-MLL-AF9 interaction,[1],inhibition of the menin-MLL-AF9 interaction
same,expression of Hoxa9 and Meis 1,Hoxa9 and Meis 1,downregulate expression of downstream targets of MLL fusion proteins
same,differentiation,MLL-AF9 BMC [5],Differentiation induced
same,growth inhibition,[6],limited effect
same,growth inhibition,[7],selectively inhibits growth of human MLL leukemia cell lines
O=C(CCc1ccccc1)N1CCN(c2ncnc3sc(CC(F)(F)F)cc23)CC1 [Compound 88],IC50,menin-MLL interaction,500 to 2000 nM
Cc1ccccc1CN1CCC(Nc2ncnc3sc(CC(F)(F)F)cc23)CC1 [Compound 117],IC50,menin-MLL interaction,100 to 500 nM
FC(F)(F)Cc1cc2c(NC3CCN(Cc4ccc(N5CCOCC5)cc4Cl)CC3)ncnc2s1 [Compound 115],IC50,menin-MLL interaction,100 to 500 nM
CS(=O)(=O)N(CC#N)c1ccc(CC(=O)N2CCN(c3ncnc4sc(CC(F)(F)F)cc34)CC2)cc1 [Compound 61],IC50,menin-MLL interaction,< 100 nM
N#Cc1cc2cc(CN3CCC(Nc4ncnc5sc(CC(F)(F)F)cc45)CC3)ccc2n1CCN1CCOCC1 [Compound 192],IC50,menin-MLL interaction,< 100 nM
Nc1ccccc1CN1CCC(Nc2ncnc3sc(CC(F)(F)F)cc23)CC1 [Compound 113],IC50,menin-MLL interaction,100 to 500 nM
Cc1c(CN2CCC(Nc3ncnc4sc(CC(F)(F)F)cc34)CC2)ccc2c1cc(C#N)n2CC1CCC(=O)NC1 (stereo not drawn) [Compound 428],IC50,menin-MLL interaction,< 100 nM
C=C(Br)Cn1c(C#N)cc2cc(CN3CCC(Nc4ncnc5sc(CC(F)(F)F)cc45)CC3)ccc21 [Compound 306],IC50,menin-MLL interaction,< 100 nM
OCCNN(c1ncnc2sc(CC(F)(F)F)cc12)C1CCN(Cc2ccccc2)CC1 [Compound 125],IC50,menin-MLL interaction,100 to 500 nM
N#CCc1ccc(CC(=O)N2CCN(c3ncnc4sc(CC(F)(F)F)cc34)CC2)cc1 [Compound 77],IC50,menin-MLL interaction,100 to 500 nM
FC(F)(F)Cc1cc2c(N3CCN(c4nnc(CCc5ccccc5)s4)CC3)ncnc2s1 [Compound 42],IC50,menin-MLL interaction,500 to 2000 nM
N#Cc1cc2cc(CN3CCC(Nc4ncnc5sc(CC(F)(F)F)cc45)CC3)ccc2n1CC1CC1 [Compound 178],IC50,menin-MLL interaction,< 100 nM
N#Cc1cc2cc(CN3CC[C@H](Nc4ncnc5sc(CC(F)(F)F)cc45)[C@H](CO)C3)ccc2[nH]1 [Compound 163],IC50,menin-MLL interaction,< 100 nM
Cc1c(CN2CCC(Nc3ncnc4sc(CC(F)(F)F)cc34)CC2)c(O)cc2c1cc(C#N)n2Cc1c[nH]nn1 [Compound 391],IC50,menin-MLL interaction,< 100 nM
N#Cc1cc2cc(CN3CCC(Nc4ncnc5sc(CC(F)(F)F)cc45)CC3)c(F)cc2[nH]1 [Compound 234],IC50,menin-MLL interaction,100 to 500 nM
CS(=O)(=O)N(CC#N)c1ccc(CC(=O)N2CCN(C3=NC=NC4SC(CC(F)(F)F)=CC34)CC2)c(Cl)c1 (stereo not drawn) [Compound 63],IC50,menin-MLL interaction,< 100 nM
NCc1ccccc1CN1CCC(Nc2ncnc3sc(CC(F)(F)F)cc23)CC1 [Compound 121],IC50,menin-MLL interaction,100 to 500 nM
FC(F)(F)Cc1cc2c(NC3CCN(Cc4c[nH]c5ccccc45)CC3)ncnc2s1 [Compound 243],IC50,menin-MLL interaction,100 to 500 nM
N#Cc1cc2c(O)c(CN3CCC(Nc4ncnc5sc(CC(F)(F)F)cc45)CC3)ccc2[nH]1 [Compound 235],IC50,menin-MLL interaction,100 to 500 nM
N#Cc1cc2cc(CN3CCC(Nc4c(COCCC5CCCC5)cnc5sc(CC(F)(F)F)cc45)CC3)ccc2[nH]1 [Compound 418],IC50,menin-MLL interaction,500 to 2000 nM
O=C(CCC1CCCCC1)N1CCN(c2ncnc3sc(CC(F)(F)F)cc23)CC1 [Compound 90],IC50,menin-MLL interaction,500 to 2000 nM
CNS(=O)(=O)Nc1ccc(CC(=O)N2CCN(c3ncnc4sc(CC(F)(F)F)cc34)CC2)cc1 [Compound 48],IC50,menin-MLL interaction,< 100 nM
NS(=O)(=O)Cc1ccc(CC(=O)N2C[C@@H]3CC[C@H]2CN3c2ncnc3sc(CC(F)(F)F)cc23)cc1 [Compound 97],IC50,menin-MLL interaction,500 to 2000 nM
Oc1cccc(CN2CCC(Nc3ncnc4sc(CC(F)(F)F)cc34)CC2)c1 [Compound 109],IC50,menin-MLL interaction,100 to 500 nM
OCCN(c1ncnc2sc(CC(F)(F)F)cc12)C1CCN(Cc2ccccc2)CC1 [Compound 129],IC50,menin-MLL interaction,100 to 500 nM
COCCCc1cc2c(N3CCN(C4=NCC(C)(C)S4)CC3)ncnc2s1 [Compound 25],IC50,menin-MLL interaction,500 to 2000 nM
FC(F)(F)Cc1cc2c(NCC3CCN(Cc4ccc(Cl)cc4C(F)(F)F)CC3)ncnc2s1 [Compound 269],IC50,menin-MLL interaction,500 to 2000 nM
Cc1c(C#N)[nH]c2ccc(CN3CCC(Nc4ncnc5sc(CC(F)(F)F)cc45)CC3)cc12 [Compound 417],IC50,menin-MLL interaction,100 to 500 nM
N#Cc1cc2cc(CN3CCC(Nc4ncnc5sc(CC(F)(F)F)cc45)CC3)ccc2n1CCn1cncn1 [Compound 209],IC50,menin-MLL interaction,< 100 nM
CC(c1cc2c(N3CCN(C4=NCC(C)(C)S4)CC3)ncnc2s1)C(F)(F)F (stereo not drawn) [Compound 38],IC50,menin-MLL interaction,500 to 2000 nM
Cc1c[nH]c(CCC(O)(CO)Cn2c(C#N)cc3c(C)c(CN4CCC(Nc5ncnc6sc(CC(F)(F)F)cc56)CC4)ccc32)n1 (stereo not drawn) [Compound 374],IC50,menin-MLL interaction,< 100 nM
COCCOCCn1cc(Cn2c(C#N)cc3c(C)c(CN4CCC(Nc5ncnc6sc(CC(F)(F)F)cc56)CC4)ccc32)cn1 [Compound 313],IC50,menin-MLL interaction,< 100 nM
N#Cc1nc2cc(CN3CCC(Nc4ncnc5sc(CC(F)(F)F)cc45)CC3)ccc2[nH]1 [Compound 249],IC50,menin-MLL interaction,500 to 2000 nM
O=C(Cc1ccccc1F)N1CCN(c2ncnc3sc(CC(F)(F)F)cc23)CC1 [Compound 72],IC50,menin-MLL interaction,100 to 500 nM
Cc1c(CN2CCC(Nc3ncnc4sc(CC(F)(F)F)cc34)CC2)ccc2c1cc(C#N)n2CC(O)(CO)CCCC1CC1 (stereo not drawn) [Compound 425],IC50,menin-MLL interaction,< 100 nM
N#Cc1cc2nc(CN3CCC(Nc4ncnc5sc(CC(F)(F)F)cc45)CC3)ccc2[nH]1 [Compound 424],IC50,menin-MLL interaction,< 100 nM
N#Cc1cc2cc(CN3CCC(Nc4ncnc5sc(CC(F)(F)F)cc45)CC3)c(F)cc2n1CC(N)=O [Compound 214],IC50,menin-MLL interaction,< 100 nM
"CC1(C)CN=C(N2CCN(c3ncnc4sc(CC(F)(F)F)cc34)CC2)S1 [Compound 1, 4-(4-(5,5-dimethyl-4,5-dihydrothiazol-2-yl)piperazin-1-yl)-6-(2,2,2-trifluoroethyl)thieno[2,3-d]pyrimidine]",inhibition of the menin-MLL-AF9 interaction,[1],inhibition of the menin-MLL-AF9 interaction
same,inhibition of proliferation,[2],selectively inhibit proliferation of MLL leukemia cells
same,expression of Hoxa9 and Meis 1,Hoxa9 and Meis 1,downregulate expression of downstream targets of MLL fusion proteins
N#C[C@H]1C[C@@H]1c1ccc(CN2CCC(Nc3ncnc4sc(CC(F)(F)F)cc34)CC2)cc1 [Compound 106],IC50,menin-MLL interaction,< 100 nM
Cc1ccc(CN2CCC(Nc3ncnc4sc(CC(F)(F)F)cc34)CC2)cc1 [Compound 147],IC50,menin-MLL interaction,500 to 2000 nM
COc1cc2c(cc(C#N)n2Cc2cn[nH]c2)c(C)c1CN1CCC(Nc2ncnc3sc(CC(F)(F)F)cc23)CC1 [Compound 389],IC50,menin-MLL interaction,< 100 nM
